According to patent US20110166066A1, “CATESTATIN (CST) AND ITS VARIANTS FOR TREATMENT OF CARDIOVASCULAR AND METABOLIC DISORDERS” (priority 2008, published 2011):
No end group written: not given here.

How the values were obtained:
[1] = system: WT and Chga knockout (KO) mice; test: Plasma catecholamine assay; type: in vivo; conditions: CST 40 μg/g bw ip for 30 min
Method: Catecholamine assay following immobilization stress: Mice were anesthetized by inhalation of “Isoflurane, USP” and blood was collected from the left ventricle in potassium EDTA tubes. […] Plasma catecholamine was measured by HPLC connected to an electrochemical detector (Waters 600E Multisolvent Delivery system and Waters 2465 Electrochemical Detector, MA) in a group of restraint mice (non-telemetered). Separation was performed on an Atlantis dC18 column (2.1×150 mm, 3 μm) from Waters. The mobile phase (0.15 ml/min) consisted of phosphate-citrate buffer and 2.2% N, N-Dimethylacetamide and acetonitrile at 95:5 (V/V). An internal standard 3,4-Dihydroxybenzylamine (DHBA, 1 ng) and an antioxidant sodium meta-bisulfite (final concentrations of 0.125 mM) were added to 0.25 ml of plasma. Following the addition of 15 mg of alumina (Aluminium oxide, Activity Grade: Super I, Type WA-4, Sigma-Aldrich, PA), the pH of the solution was raised to pH 8.6 by adding Tris buffer (0.96 M Tris, 50 mM EDTA, pH 8.69). Following a 30 min incubation and centrifugation (5000 rpm, 5 min), the supernatant was discarded and the beads were washed with water. The catecholamine was eluted with […] of 0.1 N HCl supplemented with 0.1 mM sodium meta-bisulfite. The data were analyzed using Empower software. Catecholamine levels were normalized with the recovery of internal standard.

C57/BL/6J mice cornea = test: Cornea neovascularisation assay; type: in vivo; conditions: pellet 500 ng, day 7
Method: Cornea Neovascularisation Assay. Pellets containing 500 ng Catestatin were implanted in C57/BL/6J mice (age of 8 weeks) as described (36). On postoperative day 7 mice received an intravenous injection of 500 μg BS1 lectin conjugated to FITC (Vector Laboratories). After euthanasia, enucleated eyes were fixed in 1% paraformaldehyde, corneas dissected and examined by fluorescence microscopy.

C57BL/6 wild-type mice = test: Mouse hind-limb ischemia model; type: in vivo; conditions: for Blood perfusion (LDPI), in words: 3 and 4 weeks after operation
Method: Mouse hind-limb ischemia model. Male C57BL/6 wild-type mice at the age of 12 months were subjected to unilateral hind-limb surgery. Briefly, the left femoral artery was exposed, ligated with 5-0 silk ligatures, and excised. Mice were injected with saline or 10 μg catestatin into thigh and calf muscles after operation and every other day for weeks 1 and 2 and 2 times per week for weeks 3 and 4. All further measurements and analyses were performed by investigators blinded to the treatment of the animals.
Blood flow measurement. Blood flow measurements were performed using a laser Doppler perfusion image (LDPI) analyzer (Moor Instruments, USA) as described. To minimize data variables attributable to ambient light and temperature animals were kept on a heating plate at 37° C. before measurement and blood perfusion is expressed as the LDPI index representing the ratio of left (=operated, ischemic leg) versus right (=not-operated, not-ischemic leg) limb blood flow. A ratio of 1 before operation indicates equal blood perfusion of both legs, whereas after femoral artery excision this ratio drops to 0.26, indicating severe attenuation of leg blood supply in the operated leg.
Alkaline phosphatase staining and Immunohistochemistry. For tissue staining, mice were sacrificed and ischemic limb tissues were retrieved after 4 weeks. Specimens were fixed in 10% (v/v) buffered formaldehyde, dehydrated with graded ethanol series and embedded in paraffin. Alternatively, fresh tissue was embedded in OCT compound (TISSUE-TEK®, Sakura Finetek) and snap-frozen in liquid nitrogen. Tissues were sliced into 5-μm sections. Vascular endothelial cells were identified by alkaline phosphatase staining and for assessment of artery/arteriole density sections were stained with a mouse monoclonal alpha-smooth muscle actin antibody (Pharmingen) as described (36). Adductor muscle samples of each leg were divided into 2 parts and capillaries (alkaline phosphatase positive) and arteries (alpha-smooth muscle actin positive) were counted in five sections of each part and are expressed as capillary and arteriole density per mm^2.

pAMPK = test: AMPK signalling by immunoblotting of mouse tissues; type: in vivo; conditions: CgA-KO mice
Description: Adult WT (C57BL/6) and CgA-KO mice with mixed genetic background (129svJ×C57BL/6) were used in this study. Both WT and KO mice were generated from the original founder carrying mixed genotype (50% 129svJ: 50% C57BL/6) and were maintained by brother/sister mating. Hypertensive CGA-KO mice will serve as a model for hyper insulin sensitivity. WT mice were fed 60% high fat diet (HFD) for 20 weeks. Body weight and blood glucose levels were monitored and glucose and insulin tolerance testa were performed to determine status of insulin resistance. After 20 weeks of HFD feeding mice were injected IP with catestatin (40 μg/gm body weight) twice daily for 7 days. On the 8th day, 12 hours fasted mice were subjected to glucose tolerance tests to determine their insulin sensitivity. Tissues of WT and CgA-KO mice are analyzed AMPK and eNOS signalling by immunoblotting.

EPCs = test: Effects on EPCs in-vitro; type: cell-based

SSMKLSFRARAYGFRGPGPQL [WT-CST, catestatin]
Basal plasma norepinephrine and epinephrine [1]: returned to WT level | Angiogenesis in the cornea (C57/BL/6J mice cornea): induced growth of arteries | Blood perfusion (LDPI), in words (C57BL/6 wild-type mice; listed as CST): improved perfusion | Blood perfusion (LDPI), in words (C57BL/6 wild-type mice; listed as catestatin): improved blood perfusion | Capillary density, in words (C57BL/6 wild-type mice; 4 weeks): significantly increased capillary density | Density of arteries/arterioles, in words (C57BL/6 wild-type mice; 4 weeks): increases density of arteries/arterioles | Alpha-smooth muscle actin positive vessels (C57BL/6 wild-type mice; 4 weeks after surgery): 7.5±0.5 vessels/mm^2 | Capillaries (alkaline phosphatase positive vessels) (C57BL/6 wild-type mice; 4 weeks after surgery): 356±17 capillaries/mm^2 | LDPI ratio (C57BL/6 wild-type mice; 4 wks after induction of ischemia, 10 μg i.m.): 0.94±0.03 | Perfusion ratios versus saline (C57BL/6 wild-type mice; after 3 weeks): significantly better | pAMPK signal (pAMPK): reduced | Effects on EPCs (chemotaxis, incorporation into vascular structures) (EPCs): showed effects on EPCs
